Where a SMILES comes first, the peptide text is derived from it. [ ]: non-standard residue; d: D form. Phe(4-I) = N[C@@H](Cc1ccc(I)cc1)C(=O)O
How the values were obtained:
[1] = system: CAIX and VEGF genes in MCF-7 cells; test: qPCR of hypoxia-response genes in MCF-7 cells; assay type: cell-based; conditions: hypoxic MCF-7 cells, 50 μM, vs DMSO-treated hypoxic cells
Description: The effect of our lead inhibitor on hypoxia-response signaling was measured by qPCR in cancer cell lines. Cells were treated with either 2 μM of an analogue of the HIF-2-specific inhibitor belzutifan, PT2399 (control), or 50 μM of cyclo-CRLII(4-iodo)F, incubated in hypoxia for […], and the levels of the hypoxia-response genes CAIX([41],[42]) and VEGF([43]) were measured by qPCR. We observed a 51% drop in CAIX transcription and a 43% drop in VEGF transcription in hypoxic MCF-7 (breast cancer) cells treated with 50 μM of cyclo-CRLII(4-iodo)F versus hypoxic MCF-7 cells treated with DMSO only (Figure 6e). […] We also observed a 49% drop in CAIX expression in hypoxic HeLa (cervical cancer) cells treated with cyclo-CRLII(4-iodo)F (Figure S9b). […] We observed a 35% drop in HIF-2-driven VEGF transcription in 786-O cells treated with 50 μM of cyclo-CRLII(4-iodo)F compared to a 50% decrease in 786-O cells treated with PT2399. […]
Realtime PCR (qPCR) Assay
Cells were plated on 6cm dishes at 80% confluency and incubated overnight under normoxic conditions. The cells were then treated with compound and incubated for 18 hours in hypoxic conditions. After treatment, the cells were washed with PBS and lysed under hypoxic conditions. The total RNA was extracted from the cells using a commercial RNA extraction kit (Fisher Scientific) following the manufacturer's instructions. A commercial reverse transcription kit (Promega) was used to generate cDNA. The MyTaq™ Mix master mix and appropriate primers targeting CAIX and VEGF were used to perform the qPCR reaction using a qPCR machine (Bio-Rad).

CAIX in HeLa cells = test: qPCR of CAIX in HeLa cells; assay type: cell-based; conditions: hypoxic HeLa cells, vs DMSO-treated hypoxic cells
Description: The effect of our lead inhibitor on hypoxia-response signaling was measured by qPCR in cancer cell lines. Cells were treated with either 2 μM of an analogue of the HIF-2-specific inhibitor belzutifan, PT2399 (control), or 50 μM of cyclo-CRLII(4-iodo)F, incubated in hypoxia for 24 h, and the levels of the hypoxia-response genes CAIX([41],[42]) and VEGF([43]) were measured by qPCR. We observed a 51% drop in CAIX transcription and a 43% drop in VEGF transcription in hypoxic MCF-7 (breast cancer) cells treated with 50 μM of cyclo-CRLII(4-iodo)F versus hypoxic MCF-7 cells treated with DMSO only (Figure 6e). […] We also observed a 49% drop in CAIX expression in hypoxic HeLa (cervical cancer) cells treated with cyclo-CRLII(4-iodo)F (Figure S9b). […] We observed a 35% drop in HIF-2-driven VEGF transcription in 786-O cells treated with 50 μM of cyclo-CRLII(4-iodo)F compared to a 50% decrease in 786-O cells treated with PT2399.
Figure S9. (a) The effect of cyclo-CRLII(4-iodo)F on the viability of T-ReX-293 cells. […]
The Flp-In-HRE-eYFP cells were plated on 24-well plates at 80% confluency and incubated overnight under normoxic conditions. […] An equal amount of the supernatant from each treatment was plated on a 96-well plate, and the emission of eYFP was measured using a microplate reader. […]

[2] = system: HIF-driven expression of YFP in T-REx-293 reporter cell line; test: HRE-YFP reporter assay in hypoxia; assay type: cell-based, human
Text: Following in vitro characterization and optimization of binding, we next assessed the effect of our cyclic peptides in mammalian cells. A cell line with a stably integrated reporter was constructed, in which the expression of yellow fluorescent protein (YFP) was placed under the control of a HRE. Thus, hypoxia would be expected to increase YFP expression (and subsequent fluorescence) in these cells, whereas treatment with a cell-permeable HIF inhibitor would be expected to reduce this fluorescence signal. A fusion cassette was designed containing the YFP gene preceded by three copies of the HRE sequence. This cassette was stably integrated into T-REx-293 cells as previously described.[12] […] The effect of this compound on the viability of T-Rex-293 was assessed with no effect observed at doses up to 75 μM (Figure S9a). […] It should be noted that the relative activity of each compound in this assay will be a combination of its cell permeability and HIF-inhibiting activity. […] We therefore continued to further characterize the cell activity of the 4-iodo-phenylalanine derivative. […]
Generation of HRE-eYFP integrated cell line
The Flp-In System (Fisher) was used to generate a constitutive expression cell line that expresses eYFP under the control of the VEGF HRE. The coding sequence of the yellow fluorescent protein (eYFP) was cloned downstream of the VEGF HRE sequence in the pcDNA5 plasmid, such that the entire cassette was under the regulation of a Tet-On gene expression system. The plasmid was transfected into a human embryonic kidney cell line (Flp-In™-293) and integrated using the manufacturer’s protocol.
Activity Assessment using Flp-In-HRE-eYFP cell line
The Flp-In-HRE-eYFP cells were plated on 24-well plates at 80% confluency and incubated overnight under normoxic conditions. The cells were then treated with different concentrations of compound and incubated for 18 hours under hypoxic conditions. After treatment, the cells were washed with PBS and lysed to extract the total cellular protein. The cell extract was cold centrifuged for 20 minutes at 14,000 RPM. An equal amount of the supernatant from each treatment was plated on a 96-well plate, and the emission of eYFP was measured using a microplate reader. […]

CC[C@H](C)[C@@H]1NC(=O)[C@H](CC(C)C)NC(=O)[C@H](CCCNC(=N)N)NC(=O)[C@H](CS)NC(=O)[C@H](Cc2ccc(I)cc2)NC(=O)[C@H]([C@@H](C)CC)NC1=O [cyclo-CRLII(4-iodo)F] (cyclo(CRLII[Phe(4-I)]))
drop in CAIX transcription [1]: 51%
drop in VEGF transcription [1]: 43%
drop in CAIX expression (CAIX in HeLa cells): 49%
EC50 ([2]; T-REx-293 HRE-YFP reporter, 18 hours, read-out: EC50 for reduction in hypoxia-mediated YFP fluorescence): 30.7 ± 2.1 µM
relative activity among the 9 most potent cyclo-CRLIIF derivatives on YFP expression ([2]; T-Rex-293 HRE-YFP reporter): most active
